Data as given in the supplement of paper PMC10307832.

Assays:
Test in all cases: relative viability (nuclei count vs DMSO), 5 days (fraction); higher = more cells survive
[1] = compound: CN(C)CC1=CC(=CC=C1)N=C(C2=CC=CC=C2)C3=C(NC4=C3C=CC(=C4)C(=O)N(C)C)O + COc1cc2c(Oc3ccc(NC(=O)C4(C(=O)Nc5ccc(F)cc5)CC4)cc3F)ccnc2cc1OCCCN1CCOCC1 [Foretinib] (partner 0.25 µM)
Summary of the method: (§1)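 Relative viability equals treated-well nuclei counts divided by vehicle-well nuclei counts. Counts came from 4× images of lung cancer cell lines grown in 1536-well plates for 5 days after pin-tool dosing on the day after seeding. Dosing used one drug alone or a fixed anchor-drug dose plus five library-drug doses (not always all listed) in √10 steps, and values are medians of duplicate plates.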

[2] = compound: CN(C)CC1=CC(=CC=C1)N=C(C2=CC=CC=C2)C3=C(NC4=C3C=CC(=C4)C(=O)N(C)C)O + C[C@]1(O)C[C@@H](c2nc(-c3ccc4ccc(-c5ccccc5)nc4c3)c3c(N)nccn32)C1 [Linsitinib] (partner 1 µM)
Summary of the method: as §1

[3] = compound: CN(C)CC1=CC(=CC=C1)N=C(C2=CC=CC=C2)C3=C(NC4=C3C=CC(=C4)C(=O)N(C)C)O + CCNC(=O)c1noc(-c2cc(C(C)C)c(O)cc2O)c1-c1ccc(CN2CCOCC2)cc1 [Luminespib] (partner 0.01 µM)
Summary of the method: as §1

[4] = compound: CN(C)CC1=CC(=CC=C1)N=C(C2=CC=CC=C2)C3=C(NC4=C3C=CC(=C4)C(=O)N(C)C)O + CC1(C)CCC(c2ccc(Cl)cc2)=C(CN2CCN(c3ccc(C(=O)NS(=O)(=O)c4ccc(N[C@H](CCN5CCOCC5)CSc5ccccc5)c(S(=O)(=O)C(F)(F)F)c4)cc3)CC2)C1 [Navitoclax] (partner 0.5 µM)
Summary of the method: as §1

Row | Cell Line | relative viability ([1]; first compound 0.08 µM) | relative viability ([1]; first compound 0.253 µM) | relative viability ([1]; first compound 0.8 µM) | relative viability ([1]; first compound 2.53 µM) | relative viability ([1]; first compound 8 µM) | relative viability ([2]; first compound 0.08 µM) | relative viability ([2]; first compound 0.253 µM) | relative viability ([2]; first compound 0.8 µM) | relative viability ([2]; first compound 2.53 µM) | relative viability ([2]; first compound 8 µM) | relative viability ([3]; first compound 0.08 µM) | relative viability ([3]; first compound 0.253 µM) | relative viability ([3]; first compound 0.8 µM) | relative viability ([3]; first compound 2.53 µM) | relative viability ([3]; first compound 8 µM) | relative viability ([4]; first compound 0.08 µM) | relative viability ([4]; first compound 0.253 µM) | relative viability ([4]; first compound 0.8 µM) | relative viability ([4]; first compound 2.53 µM) | relative viability ([4]; first compound 8 µM)
1 | HOP-62 | 1.08 | 1.01 | 1.12 | 1.05 | 1.17 | 1.11 | 1.08 | 0.99 | 1.1 | 1.16 | 0.818 | 0.933 | 0.977 | 0.929 | 1.05 | 1.05 | 0.94 | 1.03 | 1.04 | 0.977
2 | LC-2-ad | 0.993 | 0.881 | 0.884 | 0.919 | 0.969 | 0.844 | 0.745 | 0.884 | 0.808 | 0.593 | 1.01 | 0.894 | 1.06 | 0.863 | 0.973 | 0.456 | 0.515 | 0.429 | 0.515 | 0.338
3 | LCLC-97TM1 | 0.958 | 0.821 | 0.822 | 0.917 | 0.975 | 0.212 | 0.193 | 0.179 | 0.148 | 0.231 | 0.757 | 0.849 | 0.771 | 0.957 | 0.834 | 0.325 | 0.276 | 0.362 | 0.395 | 0.734
4 | LK-2 | 1.15 | 1.16 | 1.27 | 1.15 | 1.17 | 0.546 | 0.517 | 0.514 | 0.723 | 0.222 | 0.229 | 0.164 | 0.188 | 0.183 | 0.138 | 1.06 | 0.784 | 0.897 | 0.789 | 0.761
5 | LOU-NH91 | 0.931 | 0.882 | 0.732 | 0.917 | 0.936 | 0.975 | 0.946 | 0.68 | 0.925 | 0.952 | 0.308 | 0.32 | 0.358 | 0.337 | 0.322 | 0.756 | 0.687 | 0.548 | 0.653 | 0.638
6 | LU99A | 0.787 | 0.842 | 0.926 | 0.809 | 0.781 | 0.546 | 0.545 | 0.496 | 0.534 | 0.485 | 0.238 | 0.246 | 0.285 | 0.258 | 0.234 | 0.827 | 0.581 | 0.879 | 0.781 | 0.882
7 | LXF-289 | 0.966 | 0.9 | 1.03 | 0.93 | 0.929 | 0.935 | 0.931 | 0.955 | 0.857 | 0.915 | 0.694 | 0.675 | 0.6 | 0.652 | 0.623 | 0.959 | 0.911 | 0.946 | 0.945 | 0.809
8 | NCI-H23 | 1.1 | 1.1 | 0.622 | 1.18 | 0.81 | 0.628 | 0.73 | 0.598 | 0.554 | 0.531 | 0.21 | 0.203 | 0.196 | 0.242 | 0.243 | 0.9 | 0.911 | 0.884 | 0.99 | 0.732
9 | NCI-H322M | 0.887 | 1.02 | 0.831 | 0.831 | 0.666 | 1.04 | 0.816 | 0.677 | 0.887 | 0.707 | 0.808 | 0.864 | 0.62 | 0.707 | 0.532 | 1.18 | 1.13 | 1.07 | 1.06 | 1.15
10 | NCI-H441 | 1.11 | 1.01 | 1.24 | 1.17 | 0.873 | 0.593 | 0.539 | 0.507 | 0.496 | 0.418 | 0.303 | 0.304 | 0.364 | 0.381 | 0.354 | 0.632 | 0.391 | 0.619 | 0.647 | 0.565
11 | NCI-H460 | 0.995 | 1.07 | 0.994 | 0.928 | 1.04 | 0.841 | 0.758 | 0.893 | 0.471 | 0.54 | 0.0333 | 0.0284 | 0.0254 | 0.0282 | 0.0318 | 1.05 | 1.13 | 1.07 | 1.05 | 1.05
12 | NCI-H520 | 0.799 | 0.789 | 0.695 | 0.712 | 0.649 | 0.896 | 0.878 | 0.919 | 0.834 | 0.97 | 0.218 | 0.197 | 0.239 | 0.221 | 0.236 | 1.04 | 1.23 | 1.07 | 1.05 | 0.953
13 | NCI-H596 | 0.593 | 0.971 | 0.845 | 0.883 | 0.807 | 1.11 | 1.07 | 1.06 | 1 | 1.11 | 0.974 | 1.24 | 0.993 | 1.14 | 0.551 | 0.967 | 0.93 | 0.911 | 0.977 | 0.83
14 | NCI-H647 | 1.26 | 1.1 | 1.12 | 1.15 | 1 | 1.29 | 1.11 | 0.858 | 1.12 | 0.795 | 0.103 | 0.133 | 0.227 | 0.199 | 0.184 | 1.15 | 0.962 | 1.34 | 0.916 | 0.976
15 | NCI-H727 | 0.896 | 0.877 | 0.804 | 0.942 | 0.664 | 0.253 | 0.349 | 0.197 | 0.281 | 0.24 | 0.245 | 0.377 | 0.296 | 0.543 | 0.354 | 0.574 | 0.428 | 0.371 | 0.471 | 0.498
16 | NCI-H838 | 1.13 | 0.969 | 1 | 0.888 | 0.938 | 1.05 | 0.96 | 0.981 | 0.88 | 0.826 | 0.386 | 0.355 | 0.254 | 0.331 | 0.341 | 1.22 | 1.16 | 1.2 | 1.07 | 0.985
17 | NCI-H1355 | 0.684 | 1.05 | 0.922 | 0.919 | 1.02 | 0.849 | 0.885 | 0.656 | 0.774 | 0.762 | 0.687 | 0.713 | 0.735 | 0.764 | 0.66 | 1.01 | 0.87 | 0.836 | 0.93 | 0.866
18 | NCI-H1395 | 0.97 | 1.01 | 1.04 | 0.854 | 0.92 | 1.08 | 0.838 | 1.08 | 0.788 | 0.995 | 0.594 | 0.778 | 0.672 | 0.653 | 0.86 | 1.23 | 1.13 | 1.22 | 0.965 | 1.12
19 | NCI-H1437 | 1.3 | 1.22 | 1.35 | 1.27 | 1.33 | 0.948 | 1.07 | 1.05 | 1.01 | 1.03 | 1.12 | 1.14 | 1.2 | 1.06 | 1.2 | 1.2 | 1.08 | 1.09 | 1.06 | 1.12
20 | NCI-H1651 | 0.865 | 0.777 | 0.87 | 0.735 | 0.816 | 0.88 | 1.2 | 0.923 | 0.789 | 0.801 | 0.892 | 0.782 | 0.894 | 0.639 | 0.87 | 1.11 | 1.11 | 1.13 | 1.11 | 0.934
21 | NCI-H1666 | 1.03 | 1.01 | 1 | 1 | 1.11 | 0.695 | 0.934 | 0.741 | 0.941 | 0.731 | 1.02 | 1.02 | 1.08 | 1.01 | 1.02 | 0.983 | 1.14 | 1.02 | 1.07 | 1.1
22 | NCI-H1734 | 0.765 | 0.839 | 0.819 | 0.771 | 0.807 | 0.763 | 0.911 | 0.957 | 0.9 | 0.762 | 0.206 | 0.168 | 0.164 | 0.25 | 0.174 | 0.821 | 0.836 | 0.889 | 0.844 | 0.644
23 | NCI-H1755 | 0.941 | 0.903 | 0.989 | 0.874 | 0.918 | 0.986 | 1.01 | 0.926 | 0.998 | 0.973 | 0.472 | 0.413 | 0.422 | 0.351 | 0.454 | 1.02 | 1.01 | 0.998 | 0.972 | 0.961
24 | NCI-H1793 | 0.745 | 0.66 | – | 0.734 | 0.621 | 0.96 | 0.84 | 0.617 | 1.03 | 0.806 | 0.19 | 0.249 | – | 0.165 | 0.113 | 0.387 | 0.439 | 0.269 | 0.492 | 0.406
25 | NCI-H1915 | 1.03 | 1.06 | 1.13 | 1.12 | 1.05 | 1.09 | 1.12 | 1.15 | 1.02 | 1.11 | 0.745 | 0.745 | 0.811 | 0.836 | 0.667 | 0.819 | 0.75 | 0.782 | 0.791 | 0.805
26 | NCI-H1944 | 0.888 | 0.923 | 0.877 | 0.86 | 0.785 | 1.18 | 1.18 | 1.01 | 1.17 | 1.08 | 0.758 | 0.766 | 0.785 | 0.657 | 0.585 | 1.21 | 0.937 | 0.951 | 0.947 | 0.908
